Data from patent US5192799A, “Coumaran group containing amine compounds and their acid addition salts and quaternary ammonium salts and the use thereof as anti arrhythmic agents and as psychotropic agents” (Mitsui Petrochemical Industries, Ltd., priority 1987, dated 1993).

System: Purkinje fiber
Assay: Effect on APD (APD75, field-stimulated right ventricular free wall)
Type: cell-based, adult mongrel dog
Conditions: 20 minutes incubation, 37° C., 1 Hz, control before drug = 100%; for activation at 1 µg/mL / activation at 3 µg/mL / activation at 10 µg/mL: Canis lupus familiaris, purkinje, 20 min, read-out: APD75 % (percent change in APD75)
Protocol: The pharmacological effects of the compounds of this invention represented by general formula (1) were studied. By using the heart of an adult mongrel dog, the activity of the compounds of general formula (1) were tested in vitro and in vivo. The heart of an anaethetized dog was extracted and suspended in a chamber at 37° C. in Tyrode's solution. The drug was added to Tyrode's solution being perfused through the heart specimen, and electrophysiological effects of the drug on cardiac action potential duration (APD) and maximum rate of depolarization were studied. An anaethetized dog was cut open at the chest.
An adult mongrel dog was anaethetized with intravenous administration of pentobarbital, 30 mg/kg. The heart was quickly removed, and the right ventricular free wall was dissected in the Tyrode's solution. The right ventricular free wall was fixed within an incubator at 37° C., and field stimulation at 1 Hz was carried out. Intracellular potentials were measured by piercing glass microelectrodes (10-20 megaohms) into the Purkinje fiber and the wave form of cardiac action potential drawn on an oscilloBraun tube via an amplifier was analyzed by a computer. Value of APD was obtained at 75% of full repolarization (APD75). The drug was added to Tyrode's solution (20 ml) perfused through the specimen. The effect of the drug was expressed by a percent change in APD75 after incubation for 20 minutes with the control value of APD before application of the drug being taken as 100%.

Structure (SMILES)	activation at 1 µg/mL (dose 1 μg/ml)	activation at 3 µg/mL (dose 3 μg/ml)	APD75 % (percent change in APD75) (dose 1 μg/ml)	APD75 % (percent change in APD75) (dose 3 μg/ml)	activation at 10 µg/mL (dose 10 μg/ml)	APD75 % (percent change in APD75) (dose 10 μg/ml)
O=C1COc2cc(OCCCN[C@@H]3C[C@H]4CC[C@@H]3C4)ccc21 (relative stereo) [Compound 168]	0%	3%				
C[C@H]1C[C@H](C)CN(CCCOc2ccc3c(c2)OCC3=O)C1 (relative stereo) [Compound 1129]		7%				
CCCCCCCN(CC)CCCOc1ccc2c(c1)OCC2=O [Compound 100]	21%	31%				
CCCCCCCN(CC)CCCOc1ccc2c(c1)OCC2=O [Compound 104]			21%	30%		
CCCCCN(CC)CCCOc1ccc2c(c1)OCC2=O [Compound 108]	0%	2%				
CCN(CCCOc1ccc2c(c1)OCC2=O)C12CC3CC(CC(C3)C1)C2 [Compound 172]	0%	8%				
CCCN(CCCOc1ccc2c(c1)OCC2=O)CCOC [Compound 180]	5%	11%			15%	
CCCCN(CCCC)CCOc1ccc2c(c1)OCC2=O [Compound 204]	3%	7%			8%	
CCCCCCCN(CC)CC(O)COc1ccc2c(c1)OCC2=O (centres unmarked) [Compound 214, 6-[3-(N-ethyl-N-heptylamino)-2-hydroxypropyloxy]coumaran-3-one]	15%	15%				
CC(C)NCC(O)COc1ccc2c(c1)OCC2=O (centres unmarked) [Compound 272]		8%			10%	
CCCCCCC[N+](CC)(CC)CCCOc1ccc2c(c1OC)OCC2=O [Compound 289]	7%	8%				
CCCCCCC[N+](CC)(CC)CCCOc1cc(OC)c2c(c1)OCC2=O [Compound 290]		11%			35%	
CCCC[N+](CCCC)(CCCC)CCCOc1ccc2c(c1)OCC2=O [Compound 293]	0%	4%				
C=CC[N+](CC)(CCCOc1ccc2c(c1)OCC2=O)C1CCCCC1 (centres unmarked) [Compound 294]		11%			35%	
CCCCCCCN(CC)CCCOc1ccc2c(c1)OC(C)(CC)C2C (centres unmarked) [Compound 404]		4%				
CCCCCCC[N+](CC)(CC)CCCOc1ccc2c(c1)OCC2 [Compound 422]	0%	3%				
CCCCCCC[N+](CC)(CC)CCCOc1ccc2c(C)c(C)c(=O)oc2c1 [Compound 634]	4%	7%			11%	
CCCCCCC[N+](CC)(CC)CCCOc1ccc2ccc(=O)oc2c1 [Compound 638]	0%	7%				
CCCCCCC[N+](CC)(CC)CCCOc1ccc2c(c1)CCC2 [Compound 770]	0%	7%				
CCCCCCC[N+](CC)(CC)CCCOc1ccc2c(c1)OC(C)(CC)CC2=O (centres unmarked) [Compound 820]	4%	5%				
CCCCCCCN(CC)CCCOc1ccc2sc(=O)oc2c1 [Compound 952]	0%	3%			7%	
C=CCc1ccccc1OCC(O)C[N+](C)(C)C(C)C (centres unmarked) [Compound 1020]	10%	14%			19%	
CCCCCCC[N+](CC)(CC)CCCOc1ccccc1C=CC(C)=O [Compound 1022]	0%	11%			18%	
O=C1COc2cc(OCCCN3CCCC3)ccc21 [Compound 1102]		6%				
CC1CCN(CCCOc2ccc3c(c2)OCC3=O)C1 (centres unmarked) [Compound 1106]		8%			13%	
O=C1COc2cc(OCCCN3CCCCC3)ccc21 [Compound 1108]	0%	7%				9%
